Test results: PubChem BioAssay (NCI)
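Step 1: Grow cells in 96-well plates. Step 2: Expose to compound for 48 hours at 5 concentrations. Step 3: Interpolate endpoints linearly; if unreached, use highest concentration. GI50 = concentration required for 50% inhibition of growth. TGI is the concentration that stops growth completely.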 Where a SMILES comes first, the peptide text is derived from it. [ ]: non-standard residue; d: D form. The star is where a group is joined. ξ: configuration not given here. NMeY = CN[C@@H](Cc1ccc(O)cc1)C(=O)O; Cbz = O=C(OCc1ccccc1)*; ξA = CC(N)C(=O)O

Experiments:
Assay in all cases: growth of human tumour cells (NCI), 48 h
SW-620 colon = tested on: SW-620 colon
A549 NSCLC = tested on: A549 NSCLC
HOP-92 NSCLC = tested on: HOP-92 NSCLC
HCT-116 colon = tested on: HCT-116 colon
OVCAR-8 ovarian = tested on: OVCAR-8 ovarian
UO-31 renal = tested on: UO-31 renal
CCRF-CEM leukemia = tested on: CCRF-CEM leukemia
SK-MEL-5 melanoma = tested on: SK-MEL-5 melanoma
SF-539 CNS = tested on: SF-539 CNS
CAKI-1 renal = tested on: CAKI-1 renal

SMILES | TGI (SW-620 colon) [µM] | TGI (A549 NSCLC) [µM] | TGI (HOP-92 NSCLC) [µM] | TGI (HCT-116 colon) [µM] | TGI (OVCAR-8 ovarian) [µM] | TGI (UO-31 renal) [µM] | TGI (CCRF-CEM leukemia) [µM] | TGI (SK-MEL-5 melanoma) [µM] | TGI (SF-539 CNS) [µM] | TGI (CAKI-1 renal) [µM] | GI50 (SW-620 colon) [µM] | GI50 (A549 NSCLC) [µM] | GI50 (HOP-92 NSCLC) [µM] | GI50 (HCT-116 colon) [µM] | GI50 (OVCAR-8 ovarian) [µM] | GI50 (UO-31 renal) [µM] | GI50 (CCRF-CEM leukemia) [µM] | GI50 (SK-MEL-5 melanoma) [µM] | GI50 (SF-539 CNS) [µM] | GI50 (CAKI-1 renal) [µM]
O=C1/C(=C/c2ccccc2S)N=C(c2ccccc2)N1c1ccc2c(c1)Sc1cc(N3C(=O)/C(=C/c4ccccc4S)N=C3c3ccccc3)ccc1N2 | 41.6 | 35 | 34.5 | 40.8 | 43.1 | 29.9 | 33.3 | 30.7 | 24.1 | 41.7 |  |  |  |  |  |  |  |  |  | 
C=C1C(=O)O[C@H]2C1[C@H](OC(=O)/C(C)=C\COC(C)=O)C[C@]1(CO1)[C@@H]1[C@H](O)[C@H]3O[C@@]3(C)[C@@H]12 (some centres not stated) | 30.8 | > 100 | 30.8 | 26.5 | 99.5 | > 100 | 54.2 | 37.8 | > 65.4 | 31.5 |  |  |  |  |  |  |  |  |  | 
O=C(c1ccccc1F)c1c(NCc2ccccc2)c(=O)c1=O | > 100 | > 100 | > 100 | > 100 | > 100 | > 100 | > 100 | > 100 | > 100 | > 100 |  |  |  |  |  |  |  |  |  | 
CN(C)c1ccc(-c2nc(-c3cc4c(ccc5ccccc54)oc3=O)cs2)cc1 | > 100 | > 100 | > 100 | > 100 | > 100 | > 100 | > 100 | > 100 | > 100 | > 100 |  |  |  |  |  |  |  |  |  | 
COc1ccc(C[C@@H](C(=O)NCC(N)=O)N(C)C(=O)[C@@H]2CCCN2C(=O)[C@H](CC(C)C)NC(=O)C(C)NC(=O)OCc2ccccc2)cc1 (some centres not stated) (Cbz-[ξA]LP[NMeY](Me)G-NH2) | > 100 | > 100 | > 100 | > 100 | > 100 | > 100 | > 100 | > 100 | > 100 | > 100 |  |  |  |  |  |  |  |  |  | 
OC(CC(c1ccccc1)c1ccc(Cl)cc1)c1ccc(Cl)cc1 (configuration not stated) | > 100 | > 100 | 64.2 | > 100 | > 100 | > 100 | > 100 | 88.1 | > 100 | > 100 |  |  |  |  |  |  |  |  |  | 
CN(C)c1ccc(C(=NNC(=O)c2cc3ccccc3[nH]2)c2ccc(N(C)C)cc2)cc1 | > 100 | > 100 | 31.8 | > 34.2 | > 100 | > 59.3 | > 25.2 | > 100 | 8.04 | 45.7 |  |  |  |  |  |  |  |  |  | 
O=C1CCSSCCC(=O)Nc2ccccc2N1 | > 100 | > 100 | > 100 | > 100 | > 100 | > 100 | > 100 | > 100 | > 100 | > 100 |  |  |  |  |  |  |  |  |  | 
CC(C)=CCN(N=O)c1ncnc2nc[nH]c12 | > 100 | > 100 | > 100 | > 100 | > 100 | > 100 | > 100 | > 100 | > 100 | > 100 |  |  |  |  |  |  |  |  |  | 
CCOC(=O)CCC(NC(=O)OCc1ccccc1)C(=O)NNC(=O)OC(C)(C)C (configuration not stated) | > 100 | > 100 | > 100 | > 100 | > 100 | > 100 | > 100 | > 100 | > 100 | > 100 |  |  |  |  |  |  |  |  |  | 
COc1ccccc1C1C(C#N)=C(N)OC2=C1C(=O)CCC2 (configuration not stated) | > 100 | > 100 | > 100 | > 100 | > 100 | > 100 | > 100 | > 100 | > 100 | > 100 | > 100 | > 100 | 15.8 | > 100 | > 100 | > 100 | 59.2 | > 100 | > 100 | > 100
CCCCn1cc(C(=O)O)c(=O)c2c3sccc3ccc21 | > 100 | > 100 | > 100 | > 100 | > 100 | 50 | > 100 | > 100 | > 100 | > 100 |  |  |  |  |  |  |  |  |  | 
C=CCc1c(O)c2ccccc2[nH]c1=O | > 100 | > 100 | > 100 | > 100 | > 100 | > 100 | > 100 | > 100 | > 100 | > 100 |  |  |  |  |  |  |  |  |  | 
O=C(C[C@@H]1NCCC[C@H]1O)Cn1cnc2cc(Br)c(Cl)cc2c1=O | 0.209 | 0.143 | 0.11 | 0.121 | 0.125 | 0.422 | > 100 | 0.0473 | 0.347 | 0.313 |  |  |  |  |  |  |  |  |  | 
COc1cn2c(cc1=O)COc1ccc(-c3ccccc3)cc1-2 | > 100 | 99.5 | > 100 | > 100 | > 100 | > 100 | > 100 | > 76 | > 100 | > 100 |  |  |  |  |  |  | 40.2 |  | 43.6 | 
CCCCN(CCCC)C(=NCc1ccccc1)NC#N | 31 | > 100 | 33.4 | 65.4 | > 100 | 25.3 | 37.1 | 38.9 | 41.2 | 43.9 |  |  |  |  |  |  |  |  |  | 
